Data from patent US20060135393A1, “Mild cleansing composition” (KPSS-Kao Professional Salon Services GmbH, priority 2004, published 2006).

System: male and female volunteers backs
Assay: Occlusive multiple patch test for skin irritation potential (Hayes Chamber)
Type: in vivo, human
Details: shampoos diluted to 10% by weight in tap water; 25 μl per chamber; 3 applications, 72 hours total skin contact; visual scoring by dermatologist, 0 (no apparent cutaneous involvement) to 4 (severe erythema with edema)
Procedure: The above composition and the comparative compositions (see below) were tested for their skin irritation potential in an occlusive patch test using male and female volunteers backs aging 45+−14 years using Hayes Chamber with 25 μl volume. In detail, the shampoo compositions to be tested were diluted to a shampoo concentration of 10% by weight in tap water and homogeneously mixed. Using a laboratory calibrated pipette 25 μl of the solutions were filled into the chambers and the samples were patched onto the backs of the volunteers. The application was repeated 3 times (the duration of skin contact in total is 72 hours). After removal of the last patch (after 72 hrs), the application areas were evaluated visually by a dermatologist. The evaluation scores were as follows: [table] Such kind of tests are offered by several dermatological institutes or dermatologists having private clinics and the tests of the present invention were as well carried out in a dermatological institutes in Germany.

Work on `CCCCCCCCCCCCOS(=O)(=O)[O-].[Na+]` [1% SDS* solution, sodium dodecyl sulfate] yielded an Irritation score of 1.99.
